Laboratory results from paper PMC10583863 (European journal of medicinal chemistry, 2022).
In brackets after ≈: the same amount, converted by molar mass. Read-outs that look alike come from different tables or passages of the source.

Legend:
M. tuberculosis H37Rv [1] = test: microbe, parasite or virus in culture; format: cell-based, Mycobacterium tuberculosis; details: for MIC90: Mycobacterium tuberculosis, H37RV, read-out: MIC90 MtbH37Rv
[2] = system: M. marinum infected zebrafish larvae; test: Zebrafish larvae model of M. marinum infection; format: in vivo; details: caudal vein microinjection, ca. 6–8 ng, by tendency
[3] = in words; cited from earlier work
[4] = introduction, earlier work; cited from earlier work
M. tuberculosis H37Rv [5] = details: activity already reported, cited from earlier work
M. abscessus Bamboo = test: MIC by broth microdilution, NTM; details: especially against M. abscessus Bamboo; weak
[6] = Metabolic stability in human liver microsomes; format: in vitro ADME; details: 60 min incubation
H37Rv = test: MIC by micro-broth dilution method, Mtb panel; format: cell-based, Mycobacterium tuberculosis; details: strain H37Rv
Ty1 (Rv3405c, c190t) = test: MIC by micro-broth dilution method, Mtb panel; format: cell-based; details: Mycobacterium tuberculosis
81.10 (ethA, Δ1109–37) = format: cell-based; details: strain 81.10 (ethA, Δ1109–37)

In the case of `Cc1ccc(Nc2nc(-c3cc(C(=O)Nc4ccccc4)no3)cs2)cc1` [Compound 3], the MIC90 (M. tuberculosis H37Rv [1]) is listed as 2.7 µM, the granuloma formation [2] is listed as “granuloma formation was slightly less pronounced than in the untreated control group” and the reactivity to glutathione [3] is listed as “ruling out the possibility of indiscriminate reactivity toward biological nucleophiles”.

For `Cc1ccc(Nc2nc(-c3cc(C(=O)Nc4ccccn4)no3)cs2)cc1` [Compound 4], the MIC90 (M. tuberculosis H37Rv [1]) is given as 1.3 µM, the “half-life in human liver microsomes (HLM)” value [4] is given as 35 ± 0.8 min and the reactivity to glutathione [3] is given as “ruling out the possibility of indiscriminate reactivity toward biological nucleophiles”.

`Cc1ccc(Nc2nc(-c3cc(C(=O)Nc4ccc(F)cc4)no3)cs2)cc1` [Compound 9a] gave an MIC90 (M. tuberculosis H37Rv [1]) of 2.5 µM.

`Cc1ccc(Nc2nc(-c3cc(C(=O)Nc4cccc(F)c4)no3)cs2)cc1` [Compound 10a] gave an MIC90 (M. tuberculosis H37Rv [1]) of 6.3 µM.

In the case of `Cc1ccc(Nc2nc(-c3cc(C(=O)Nc4ccccc4F)no3)cs2)cc1` [Compound 11a], the MIC90 (M. tuberculosis H37Rv [1]) is reported as 2.5 µM.

For `Cc1ccc(NC(=O)c2cc(-c3csc(Nc4ccc(C)cc4)n3)on2)cc1` [Compound 14a], the MIC90 (M. tuberculosis H37Rv [1]) was 2.6 µM.

`Cc1ccc(Nc2nc(-c3cc(C(=O)Nc4cccc(C)c4)no3)cs2)cc1` [Compound 15a] gave an MIC90 (M. tuberculosis H37Rv [1]) of 1.3 µM.

With `Cc1ccc(Nc2nc(-c3cc(C(=O)Nc4ccccc4C)no3)cs2)cc1` [Compound 16a] the MIC90 (M. tuberculosis H37Rv [1]) was 2.5 µM.

With `Cc1ccc(Nc2nc(-c3cc(C(=O)Nc4ccc(O)cc4)no3)cs2)cc1` [Compound 20a] the MIC90 (M. tuberculosis H37Rv [1]) was 1.3 µM.

Work on `Cc1ccc(Nc2nc(-c3cc(C(=O)Nc4ccc(O)cc4)no3)cs2)cc1O` [Compound 20e] yielded an MIC90 (M. tuberculosis H37Rv [1]) of 12.2 µM.

Work on `Cc1ccc(Nc2nc(-c3cc(C(=O)Nc4cccc(O)c4)no3)cs2)cc1` [Compound 21a] yielded an MIC90 (M. tuberculosis H37Rv [1]) of 1.3 µM.

In the case of `Cc1ccc(Nc2nc(-c3cc(C(=O)Nc4ccccc4O)no3)cs2)cc1` [Compound 22a], the MIC90 (M. tuberculosis H37Rv [1]) is reported as 1.3 µM.

For `Cc1ccc(Nc2nc(-c3cc(C(=O)Nc4ccncc4)no3)cs2)cc1` [Compound 23a], the MIC90 (M. tuberculosis H37Rv [1]) was 2.6 µM.

For `Cc1ccc(Nc2nc(-c3cc(C(=O)Nc4cccnc4)no3)cs2)cc1` [Compound 24a], the MIC90 (M. tuberculosis H37Rv [1]) was 26 µM.

`Cc1ccc(Nc2nc(-c3cc(C(=O)Nc4cc(C)ccn4)no3)cs2)cc1` [Compound 27a] showed an MIC90 (M. tuberculosis H37Rv [1]) of 2.6 µM.

For `Cc1ccc(Nc2nc(-c3cc(C(=O)Nc4ccsc4)no3)cs2)cc1` [Compound 32a], the MIC90 (M. tuberculosis H37Rv [1]) was 2.6 µM.

For `O=C(Nc1ccccc1)c1cc(-c2csc(Nc3cc(Cl)cc(Cl)c3)n2)on1` [Compound 35b], the “MIC90 MtbH37Rv” value (M. tuberculosis H37Rv [5]) is given as greater than 20 µg/mL.

Work on `Cc1cc(C)cc(Nc2nc(-c3cc(C(=O)Nc4ccccc4)no3)cs2)c1` [Compound 35d] yielded an MIC90 (M. tuberculosis H37Rv [1]) of 2.5 µM.

In the case of `O=C(Nc1ccccn1)c1cc(-c2csc(Nc3cc(Cl)cc(Cl)c3)n2)on1` [Compound 36b], the “MIC90 MtbH37Rv” value (M. tuberculosis H37Rv [5]) is given as greater than 20 µg/mL.

For `Cc1ccc(Nc2nc(-c3cc(C(=O)Nc4ccccc4)no3)cs2)cc1O` [Compound 42e], the “antitubercular whole cell activity in words” value (M. tuberculosis H37Rv [1]) was “retained a certain activity” and the MIC90 (M. tuberculosis H37Rv [1]) was 6.3 µM.

For `O=C(Nc1ccccc1)c1cc(-c2csc(Nc3ccccc3)n2)on1` [Compound 42g], the MIC90 (M. tuberculosis H37Rv [1]) was 3.4 µM and the “inhibitory activity in words” value (M. abscessus Bamboo) was “concentration-dependent inhibitory activity”.

For `Nc1nc(-c2cc(C(=O)Nc3ccccc3)no2)cs1` [Compound 42i], the “metabolic stability in HLM in words” value [6] was “did not show any significant biotransformation”.

For `O=C(Nc1ccccc1)c1cc(-c2csc(Nc3cc(Cl)c(Cl)c(Cl)c3)n2)on1` [Compound 42j], the “metabolic stability in HLM in words” value [6] was “did not show any significant biotransformation”.

`O=C(Nc1ccccc1)c1cc(-c2csc(Nc3ccc(Cl)cc3)n2)on1` [Compound 42l] showed an MIC90 (M. tuberculosis H37Rv [1]) of 3.2 µM.

With `O=C(Nc1ccccc1)c1cc(-c2csc(Nc3cccc(O)c3)n2)on1` [Compound 42m] the MIC90 (M. tuberculosis H37Rv [1]) was 13.2 µM.

For `O=C(Nc1ccccc1)c1cc(-c2csc(Nc3ccc(CO)cc3)n2)on1` [Compound 42n, 5-(2-((4-(hydroxymethyl)phenyl)amino)thiazol-4-yl)-N-phenylisoxazole-3-carboxamide], the “antitubercular whole cell activity in words” value (M. tuberculosis H37Rv [1]) was “no whole cell activity”.

With `Cc1ccc(Nc2nc(-c3cc(C(=O)Nc4ccccn4)no3)cs2)cc1O` [Compound 43e] the “antitubercular whole cell activity in words” value (M. tuberculosis H37Rv [1]) was “retained a certain activity” and the MIC90 (M. tuberculosis H37Rv [1]) was 12.6 µM.

For `O=C(Nc1ccccn1)c1cc(-c2csc(Nc3ccccc3)n2)on1` [Compound 43g], the “inhibitory activity in words” value (M. abscessus Bamboo) was “concentration-dependent inhibitory activity”.

In the case of `Nc1nc(-c2cc(C(=O)Nc3ccccn3)no2)cs1` [Compound 43i], the “metabolic stability in HLM in words” value [6] is reported as “did not show any significant biotransformation”.

In the case of `O=C(Nc1ccccn1)c1cc(-c2csc(Nc3cc(Cl)c(Cl)c(Cl)c3)n2)on1` [Compound 43j], the “metabolic stability in HLM in words” value [6] is reported as “did not show any significant biotransformation”.

For `O=C(Nc1ccccn1)c1cc(-c2csc(Nc3ccc(CO)cc3)n2)on1` [Compound 43n, 5-(2-((4-(hydroxymethyl)phenyl)amino)thiazol-4-yl)-N-(pyridin-2-yl)isoxazole-3-carboxamide], the “antitubercular whole cell activity in words” value (M. tuberculosis H37Rv [1]) was “no whole cell activity”.

`Cc1ccc(Nc2nc(-c3cc(C(=O)Nc4ccccc4)no3)co2)cc1` [Compound 47] gave an MIC90 (M. tuberculosis H37Rv [1]) of 2.8 µM.

For `Cc1ccc(Nc2nc(-c3cc(C(=O)Nc4ccccn4)no3)co2)cc1` [Compound 48], the “MIC90 MtbH37Rv” value (M. tuberculosis H37Rv [5]; value in brackets) is listed as 6.9 µM.

For `CCOC(=O)c1cc(-c2cccc(Nc3ccc(C)cc3)n2)on1` [Compound 53, Ethyl 5-(6-(p-tolylamino)pyridin-2-yl)isoxazole-3-carboxylate], the MIC90 (M. tuberculosis H37Rv [1]) was 3.8 µM.

With `O=C(Nc1ccccc1)c1cc(C(=O)Nc2nc3ccccc3s2)on1` [Compound 58a] the MIC90 (M. tuberculosis H37Rv [1]) was greater than 40 µg/mL.

In the case of `Cc1ccc2nc(NC(=O)c3cc(C(=O)Nc4ccccn4)no3)sc2c1` [Compound 58b], the MIC90 (M. tuberculosis H37Rv [1]) is reported as greater than 40 µg/mL.

With `O=C(Nc1ccccn1)c1cc(C(=O)Nc2nc3ccccc3s2)on1` [Compound 59a] the MIC90 (M. tuberculosis H37Rv [1]) was greater than 40 µg/mL.

In the case of `Cc1ccc2nc(NC(=O)c3cc(C(=O)Nc4ccccc4)no3)sc2c1` [Compound 59b], the MIC90 (M. tuberculosis H37Rv [1]) is reported as greater than 40 µg/mL.

Compound `Cc1cccc(NC(=O)c2cc(C(=O)Nc3nc4ccccc4s3)on2)c1` [Compound 60a] has an MIC90 (M. tuberculosis H37Rv [1]) greater than 40 µg/mL.

`Cc1cccc(NC(=O)c2cc(C(=O)Nc3nc4ccc(C)cc4s3)on2)c1` [Compound 60b] gave an MIC90 (M. tuberculosis H37Rv [1]) greater than 40 µg/mL.

Work on `COc1ccc2sc(NC(=O)c3cc(C(=O)Nc4cccc(C)c4)no3)nc2c1` [Compound 60c] yielded an MIC90 (M. tuberculosis H37Rv [1]) greater than 40 µg/mL.

`O=C(Nc1ccc(O)cc1)c1cc(C(=O)Nc2nc3ccccc3s2)on1` [Compound 61a] gave an MIC90 (M. tuberculosis H37Rv [1]) greater than 40 µg/mL.

For `Cc1ccc2nc(NC(=O)c3cc(C(=O)Nc4ccc(O)cc4)no3)sc2c1` [Compound 61b], the MIC90 (M. tuberculosis H37Rv [1]) was greater than 40 µg/mL.

With `O=C(Nc1cccc(F)c1)c1cc(C(=O)Nc2nc3ccccc3s2)on1` [Compound 62a] the MIC90 (M. tuberculosis H37Rv [1]) was greater than 40 µg/mL.

Work on `O=C(Nc1cccc(O)c1)c1cc(C(=O)Nc2nc3ccccc3s2)on1` [Compound 63a] yielded an MIC90 (M. tuberculosis H37Rv [1]) greater than 40 µg/mL.

With `NNC(=O)c1ccncc1` [INH, Isoniazide] the “MIC90 MtbH37Rv” value (M. tuberculosis H37Rv [1]; REMA method, M. tuberculosis H37Rv) was 0.025 µg/mL (≈ 0.182 µM), the MIC90 (H37Rv) was 0.025 µg/mL (≈ 0.182 µM) and the MIC90 (Ty1 (Rv3405c, c190t)) was 0.025 µg/mL (≈ 0.182 µM). For the same compound, the MIC90 (81.10 (ethA, Δ1109–37)) was 0.025 µg/mL (≈ 0.182 µM).
